Results: US20230104936A1, “TRPML MODULATORS” (Casma Therapeutics, Inc., priority 2019, published 2023)

What follows are compounds tested on TFEB (assay: TFEB nuclear translocation assay, HeLa wt cells). Conditions: 2 hrs compound treatment, Table 1 does not say HeLa wt or TRPML1 KO.
Format: cell-based
Description: For the TFEB nuclear translocation assay, HeLa wt or HeLa TRPML1 KO cells were plated at 2700 cells/well into black-walled, 384-well Cell carrier Ultra tissue culture treated plates in complete media and incubated overnight. The next day, cells are treated for 2 hrs with compounds and incubated at 37° C. Cells were then fixed for 30 minutes at room temperature in 4% final PFA and washed five times with 90 μL PBS. PBS is aspirated from the wells and the cells are blocked with 7.5 μL blocking buffer (1:1 PBS/Odyssey block buffer containing 0.1% triton x-100 and 1% goat serum). After 30-60 minutes of block, 7.5 μL of primary anti-TFEB (rabbit) antibody is added for a final dilution of 1:200 antibody in 15 μL blocking buffer. Plates are incubated overnight at 4° C. The following day, plates are washed again into PBS, 90 μL with 5 washes, all PBS is aspirated from the wells and the cells are incubated for 1 hr in 1:1000 goat-anti rabbit Alexa 488 secondary antibody, also containing 10 μg/mL Hoechst 33342. After the 1 hr room temperature incubation, plates are washed a final time into PBS, sealed with foil and imaged with an automated epifluorescence microscopy (PerkinElmer Operetta CLS). Four different fields were imaged per well using ×20 magnification for DAPI and FITC filter sets. Images were quantified using PerkinElmer Harmony software, briefly: apply flatfield correction (basic/advanced) for input images. Use the Find Nuclei building block with channel set at Hoechst to find the nuclei. Use the Find cytoplasm building block with channel set to Alexa 488 to find the cytoplasm. Use select cell region with Channel set at Alexa 488 and region of interest as Nuclei and define outer border at 0 μm and inner at 45 μm to cover complete nuclei. Use select cell region with Channel set at Alexa 488 and region of interest as ring region and define outer border at −5 μm and inner at 0 μm to define a ring around the nucleus. Use the find calculate intensity parameter to calculate intensity of the nuclear region and the ring region. Define results as Number of nuclei and ratio of A/B where A is Intensity of Nuclei and B is intensity of the ring region.
The compound numbers correspond to the compound numbers above in Tables A or B. Compounds having an activity designated as “++++” provided an AC50 of ≤2.00 μM; compounds having an activity designated as “+++” provided an AC50 of 2.01-8.00 μM; compounds having an activity designated as “++” provided an AC50 of 8.01-9.99 μM; and compounds having an activity designated as “+” provided an AC50 of ≥10.00 μM.

Row | SMILES | AC50 [µM]
1 | CC(c1cccc(F)c1N1CCC(CN2C[C@@H](C)O[C@@H](C)C2)CC1)S(=O)(=O)c1ccc(S(=O)(=O)C(F)F)cc1 (single isomer, unassigned) [Compound A-808, 4-((1-(2-(1-((4-((difluoromethyl)sulfonyl)phenyl)sulfonyl)ethyl)-6-fluorophenyl)piperidin-4-yl)methyl)-2,6-dimethylmorpholine] | ≤ 2
2 | C[C@@H]1CN(CC2CCN(c3c(F)cccc3NS(=O)(=O)c3ccc(S(=N)(=O)N(C)C)cc3)CC2)C[C@H](C)O1 (single isomer, unassigned) [Compound A-811, Rel-N-(2-(4-((2,6-dimethylmorpholino)methyl)piperidin-1-yl)-3-fluorophenyl)-4-(N,N-dimethylsulfamidimidoyl)benzenesulfonamide] | ≤ 2
3 | C[C@@H]1CN(CC2CCN(c3c(F)cccc3NS(=O)(=O)c3ccc(S(C)(=N)=O)cc3)CC2)C[C@H](C)O1 (single isomer, unassigned) [Compound A-846] | 2.01 to 8
4 | C[C@@H]1CN(CC2CCN(c3c(F)cccc3NS(=O)(=O)c3ccc(S(C)(=N)=O)cc3)CC2)C[C@H](C)O1 (single isomer, unassigned) [Compound A-847] | ≥ 10
5 | CC(c1cccc(F)c1N1CCC(CN2C[C@H]3C[C@@H](C2)O3)CC1)S(=O)(=O)c1ccc(S(=O)(=O)N(C)C)cc1 (single isomer, unassigned) [Compound A-849] | 2.01 to 8
6 | CC(c1cccc(C#N)c1N1CCC(CN2C[C@@H](C)O[C@@H](C)C2)CC1)S(=O)(=O)c1ccc(S(=O)(=O)N(C)C)cc1 (single isomer, unassigned) [Compound A-854, 4-((1-(3-cyano-2-(4-((2,6-dimethylmorpholino)methyl)piperidin-1-yl)phenyl)ethyl)sulfonyl)-N,N-dimethylbenzenesulfonamide] | ≤ 2
7 | CC(C1CCN(c2c(F)cccc2NS(=O)(=O)c2ccc(S(=N)(=O)N(C)C)cc2)CC1)N1C[C@@H](C)O[C@@H](C)C1 (single isomer, unassigned) [Compound A-871A] | ≤ 2
8 | CC(C1CCN(c2c(F)cccc2NS(=O)(=O)c2ccc(S(=N)(=O)N(C)C)cc2)CC1)N1C[C@@H](C)O[C@@H](C)C1 (single isomer, unassigned) [Compound A-871B] | ≤ 2
9 | CC(C1CCN(c2c(F)cccc2NS(=O)(=O)c2ccc(S(=N)(=O)N(C)C)cc2)CC1)N1C[C@@H](C)O[C@@H](C)C1 (single isomer, unassigned) [Compound A-872] | ≤ 2

Same assay, conditions: Homo sapiens, HeLa, 2 h, 2 hrs compound treatment, Table 1 does not say HeLa wt or TRPML1 KO

Row | SMILES | AC50 [µM]
10 | CN(C)S(=O)(=O)c1ccc(S(=O)(=O)Nc2ccccc2N2CCN([C@@H]3C[C@@H]4CC[C@H]3C4)CC2)cc1 (racemic) [Compound A-421, rac-N4-(2-{4-[(1R,2S,4S)-bicyclo[2.2.1]heptan-2-yl]piperazin-1-yl}phenyl)-N1,N1-dimethylbenzene-1,4-disulfonamide] | ≤ 2
11 | CN(C)S(=O)(=O)c1ccc(S(=O)(=O)Nc2ccccc2N2CCN(C(=O)[C@@H]3C[C@@H]4CC[C@H]3O4)CC2)cc1 (racemic) [Compound A-449, rac-N1,N1-dimethyl-N4-(2-{4-[(1R,2R,4S)-7-oxabicyclo[2.2.1]heptane-2-carbonyl]piperazin-1-yl}phenyl)benzene-1,4-disulfonamide] | 2.01 to 8
12 | CN(C)S(=O)(=O)c1ccc(S(=O)(=O)Nc2ccccc2N2CCN(C(=O)[C@@H]3C[C@H]3C(C)(F)F)CC2)cc1 (racemic) [Compound A-463, rac-N4-(2-{4-[(1R,2R)-2-(1,1-difluoroethyl)cyclopropanecarbonyl]piperazin-1-yl}phenyl)-N1,N1-dimethylbenzene-1,4-disulfonamide] | 2.01 to 8
13 | CN(C)S(=O)(=O)c1ccc(S(=O)(=O)Nc2ccccc2N2CCN(C(=O)[C@@]34CCC[C@@H]3C4)CC2)cc1 (racemic) [Compound A-477, rac-N4-(2-{4-[(1R,5R)-bicyclo[3.1.0]hexane-1-carbonyl]piperazin-1-yl}phenyl)-N1,N1-dimethylbenzene-1,4-disulfonamide] | 2.01 to 8
14 | C[C@H]1COC[C@H](C)N1CC1CCN(c2c(F)cccc2NS(=O)(=O)c2ccc(S(=O)(=O)N(C)C)cc2)CC1 (racemic) [Compound A-763, N4-(2-{4-[(3,5-dimethylmorpholin-4-yl)methyl]piperidin-1-yl}-3-fluorophenyl)-N1,N1-dimethylbenzene-1,4-disulfonamide] | ≤ 2
15 | C[C@@H]1C[C@@]2(CCN1c1ccccc1NS(=O)(=O)c1ccc(S(=O)(=O)N(C)C)cc1)COC(C)(C)C2 (racemic) [Compound A-799, N1,N1-dimethyl-N4-(2-((5R,7R)-3,3,7-trimethyl-2-oxa-8-azaspiro[4.5]decan-8-yl)phenyl)benzene-1,4-disulfonamide] | ≤ 2
16 | C[C@H]1CN(CC2CCN(c3c(F)cccc3NS(=O)(=O)c3ccc(S(=O)(=O)N(C)C)cc3)CC2)C[C@H](C)O1 (racemic) [Compound A-843, rel-N1-(2-(4-((2,6-dimethylmorpholino)methyl)piperidin-1-yl)-3-fluorophenyl)-N4,N4-dimethylbenzene-1,4-disulfonamide] | ≤ 2
17 | C[C@H]1COC[C@H](C)N1CC1CCN(c2c(F)cccc2NS(=O)(=O)c2ccc(S(C)(=O)=O)cc2)CC1 (relative stereo) [Compound A-838, trans-N-(2-(4-((3,5-dimethylmorpholino)methyl)piperidin-1-yl)-3-fluorophenyl)-4-(methylsulfonyl)benzenesulfonamide] | ≤ 2
18 | C[C@H]1COC[C@H](C)N1C[C@H]1CCN(c2c(F)cccc2NS(=O)(=O)c2ccc(S(=O)(=O)N(C)C)cc2)C1 (relative stereo) [Compound A-896, N4-{2-[(3R)-3-{[3,5-dimethylmorpholin-4-yl]methyl}pyrrolidin-1-yl]-3-fluorophenyl}-N1,N1-dimethylbenzene-1,4-disulfonamide] | ≤ 2
19 | C[C@@H]1COC[C@@H](C)N1C[C@H]1CCN(c2c(F)cccc2NS(=O)(=O)c2ccc(S(=O)(=O)N(C)C)cc2)C1 (relative stereo) [Compound A-897, N4-{2-[(3R)-3-{[3,5-dimethylmorpholin-4-yl]methyl}pyrrolidin-1-yl]-3-fluorophenyl}-N1,N1-dimethylbenzene-1,4-disulfonamide] | ≤ 2
20 | CC(c1cccc(F)c1N1CCC(CN2C[C@@H](C)O[C@@H](C)C2)CC1)S(=O)(=O)c1ccc(S(=O)(=O)C(F)F)cc1 (single isomer, unassigned) [Compound A-807, 4-((1-(2-(1-((4-((difluoromethyl)sulfonyl)phenyl)sulfonyl)ethyl)-6-fluorophenyl)piperidin-4-yl)methyl)-2,6-dimethylmorpholine] | ≤ 2
21 | C[C@@H]1CN(CC2CCN(c3c(F)cccc3NS(=O)(=O)c3ccc(S(=N)(=O)N(C)C)cc3)CC2)C[C@H](C)O1 (single isomer, unassigned) [Compound A-810, Rel-N-(2-(4-((2,6-dimethylmorpholino)methyl)piperidin-1-yl)-3-fluorophenyl)-4-(N,N-dimethylsulfamidimidoyl)benzenesulfonamide] | ≤ 2
22 | CC(c1cccc(F)c1N1CCC(CN2C[C@@H](C)O[C@@H](C)C2)CC1)S(=O)(=O)c1ccc2c(c1)CCC2 (single isomer, unassigned) [Compound A-828] | ≤ 2
23 | C[C@H]1COC[C@H](C)N1CC1CCN(c2c(F)cccc2NS(=O)(=O)c2ccc(S(=N)(=O)N(C)C)cc2)CC1 (single isomer, unassigned) [Compound A-833] | ≤ 2
24 | C[C@H]1COC[C@H](C)N1CC1CCN(c2c(F)cccc2NS(=O)(=O)c2ccc(S(=N)(=O)N(C)C)cc2)CC1 (single isomer, unassigned) [Compound A-834] | ≤ 2
25 | CC(c1cccc(C#N)c1N1CCC(CN2C[C@@H](C)O[C@@H](C)C2)CC1)S(=O)(=O)c1ccc(S(=O)(=O)N(C)C)cc1 (single isomer, unassigned) [Compound A-845, 4-((1-(3-cyano-2-(4-((2,6-dimethylmorpholino)methyl)piperidin-1-yl)phenyl)ethyl)sulfonyl)-N,N-dimethylbenzenesulfonamide] | 2.01 to 8
26 | CC(c1cccc(F)c1N1CCC(CN2C[C@H]3C[C@@H](C2)O3)CC1)S(=O)(=O)c1ccc(S(=O)(=O)N(C)C)cc1 (single isomer, unassigned) [Compound A-848] | ≤ 2
27 | CC(C1CCN(c2c(F)cccc2NS(=O)(=O)c2ccc(S(=N)(=O)N(C)C)cc2)CC1)N1C[C@@H](C)O[C@@H](C)C1 (single isomer, unassigned) [Compound A-871] | ≤ 2
